A value given as a limit tells only on which side of the number the result lay.

One assay concerns the target T1, Cholesteryl ester transfer protein (Homo sapiens, UniProt P11597).
T1 sequence (P11597 whole entry): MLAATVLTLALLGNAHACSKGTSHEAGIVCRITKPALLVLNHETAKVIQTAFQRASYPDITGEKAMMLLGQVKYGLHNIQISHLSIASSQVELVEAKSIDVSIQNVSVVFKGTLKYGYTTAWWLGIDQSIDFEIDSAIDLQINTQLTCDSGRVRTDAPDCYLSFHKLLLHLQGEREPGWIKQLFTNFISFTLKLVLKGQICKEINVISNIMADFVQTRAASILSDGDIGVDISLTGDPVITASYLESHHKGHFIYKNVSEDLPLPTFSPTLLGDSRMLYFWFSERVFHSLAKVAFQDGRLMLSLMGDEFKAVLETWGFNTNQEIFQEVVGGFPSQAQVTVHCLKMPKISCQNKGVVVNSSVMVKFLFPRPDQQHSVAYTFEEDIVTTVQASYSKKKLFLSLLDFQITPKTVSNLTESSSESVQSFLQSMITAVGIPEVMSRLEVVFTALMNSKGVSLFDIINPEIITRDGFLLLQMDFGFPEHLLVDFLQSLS
The assay can be described thus: Compound was tested for CETP inhibition by a precipitation method to separate lipoproteins after incubation of radiolabeled HDL with LDL and CETP.
By IC50 is commonly meant the concentration that inhibits the measured activity by half. Read a low IC50 as higher potency. Molecule `COc1ccc(O)c(O)c1/C=C1\[C@@H](C)CCC2C(C)(C)CCC[C@]12C` (some centres not stated) came in with an IC50 of 0.6 µM. Still for that read-out and setting: as for `COc1ccc(O)c(O)c1CC1=C(C)CCC2C(C)(C)CCC[C@]12C` (some centres not stated), the figure is 1 µM.

The next assay concerns the target T1, Cholesteryl ester transfer protein. The assay can be described thus: Compound was tested for Cholesteryl ester transfer protein (CETP) inhibition by CETP-SPA assay.
On to `COc1ccc(O)c2c1C[C@]1(C)[C@@H](C)CCC3C(C)(C)CCC[C@]31O2` (some centres not stated), for which the IC50 was 46 µM. Regarding `C[C@H]1CCC2C(C)(C)CCC[C@]23Oc2ccc(O)cc2C[C@]13C` (some centres not stated), 22 µM corresponded to half-maximal inhibition (IC50). The same measure, in the same setting: with `COc1ccc(O)c(O)c1/C=C1\[C@@H](C)CCC2C(C)(C)CCC[C@]12C` (some centres not stated) the figure was 5 µM. On the same count and under the same terms, as for `COc1ccc(O)c(O)c1CC1=C(C)CCC2C(C)(C)CCC[C@]12C` (some centres not stated), the figure is 5 µM; as for `CC1=CCC[C@H]2[C@](C)(Cc3cc(O)ccc3O)[C@@H](C)CC[C@]12C` [AVAROL], 25 µM. The same measure, in the same setting: with `CC1(C)CCC[C@]2(C)C3C=C4C(=CC(=O)C(O)=C4Cl)OC3CC[C@@]12C` (some centres not stated) [CHOLOROPUUPEHENONE] the figure was 0.3 µM; with `C=C1CCC[C@H]2[C@](C)(CC3=C(O)C(=O)C=C(OC)C3=O)[C@@H](C)CC[C@]12C` [ILIMAQUINONE], 100 µM.

In turn, `CC1(C)CCC[C@]2(C)[C@H]3C=C4C=C(O)C(=O)C=C4O[C@@]3(C)CC[C@@H]12` [PUUPEHENONE] had an IC50 of 6 µM.

As for `C[C@]12CC(=O)[C@@H](O)[C@](C)(CO)[C@@H]1CC[C@@]1(C)c3cocc3CC[C@H]21` [SPONGIADIOL], half-maximal inhibition (IC50) required 196 µM.

Take `CC1=CC[C@H]2C(C)(C)CCC[C@]2(C)[C@H]1C[C@H](OS(=O)(=O)[O-])[C@H](C)CCCc1ccoc1.C[N+](C)=C(N)N` [SULFIRICIN]: the IC50 is more than 190 µM.
